{
  "source": "patent US20260256812A1",
  "about": "“COMPOSITION COMPRISING A COMBINATION OF A CORTICOSTEROID AND A FLAVONOID FOR USE IN TREATING EYE-RELATED DISEASES” (priority 2023, published 2026)",
  "key": {"ARPE-19 cells [1]": {"test_system": "ARPE-19 cells", "experiment": "Cytotoxicity evaluation by acid phosphatase assay (APA)", "assay_type": "cell-based, human", "description": "ARPE-19 (adult retinal pigment epithelium-19) cell line was cultured using cell culture media containing a 1:1 mixture of DMEM and F-12 nutrient mixture. The media was supplemented with 10% FBS and 1% penicillin-streptomycin antibiotic mixture. During the culture, cells were maintained at 37° C. with 5% CO2 in a humidified incubator and sub-cultured with trypsin upon confluency.\nCytotoxicity evaluation of the drugs, both individually and in combination, was performed using the acid phosphatase assay (APA). The cytotoxicity assay was performed on TA and QCN from 5 to 250 μM and 1 to 250 μM, respectively. After investigating individual drugs, drug combinations were tested as outlined in Table 1.\nInitially ARPE-19 cells were seeded onto a 96-well plate at a seeding density of 5000 cells/well containing 100 μL of cell culture media and cultured for 24 hr. After 24 hr, treatments were added to the wells and incubated for the period of the study (24 h and 48 hr). After the treatment period, media was removed, and cells were washed twice with PBS. Upon washing, 100 μL of 10 mM PNPP substrate dissolved in 0.1 M sodium acetate buffer was added to the wells and incubated for 2 hr. Finally, 50 μL of stop solution (1 M sodium hydroxide) was added and the plate was analysed in the plate reader at 405 nm."}, "[2]": {"test_system": "intracellular ROS in ARPE-19 cells", "experiment": "DCFH-DA intracellular ROS assay by flow cytometry", "assay_type": "cell-based, human", "quoted_text": "ARPE-19 cells were seeded onto 6-well plates at a seeding density of 25×10^4 cells/well and incubated for 24 hr. At the 24 hr time point cells were stimulated with stimulants to induce oxidative stress. […] Upon incubation with dye, cells were detached using trypsin and resuspended in PBS for analysis using flow cytometry.\nUpon stimulation and treatment, the intracellular ROS levels were measured using flow cytometry to assess the anti-oxidant effect of the treatments. The oxidation of DCFH-DA to 2′-7′dichlorofluorescein (DCF) was used for the detection of intracellular ROS levels including nitrogen dioxide and hydroxyl radicals. The cells will take up the DCFH-DA dye where cellular esterase cleaves off the acetyl groups, resulting in the formation of DCFH (2′,7′-dichlorodihydrofluorescein). Oxidation of DCFH in the presence of intracellular ROS leads to the formation of DCF. This DCF fluorescent molecule can be detected using a flow cytometer by mean fluorescence intensity (MFI)."}, "IL-6": {"test_system": "IL-6", "experiment": "IL-6 ELISA on ARPE-19 cell supernatants", "assay_type": "cell-based, human", "description": "The human IL-6, IL-8, MCP-1, and VEGF-C ELISA kits were used according to the manufacturer's protocol to investigate the cytokine secretions in the cell supernatants. Cells were seeded onto a 24-well plate at a seeding density of 3×10^4 cells/well with 500 μL of cell culture media and cultured for 24 hr. Cells were kept overnight in low serum media (with 1% FBS) to synchronise their growth phase before stimulating inflammation. […] Upon stimulation, cells were exposed to various treatments of drugs alone and in combination for 24 hr. After the treatment duration media conditioned by treated cells were collected and analysed for the cytokines and VEGF-C secretions using the ELISA kits. ELISA was performed according to the manufacturer's protocol."}, "VEGF-C": {"test_system": "VEGF-C", "experiment": "Anti-VEGF activity, VEGF-C ELISA on LPS-stimulated ARPE-19 cells", "assay_type": "cell-based, human", "description": "The human IL-6, IL-8, MCP-1, and VEGF-C ELISA kits were used according to the manufacturer's protocol to investigate the cytokine secretions in the cell supernatants. Cells were seeded onto a 24-well plate at a seeding density of 3×10^4 cells/well with 500 μL of cell culture media and cultured for 24 hr. Cells were kept overnight in low serum media (with 1% FBS) to synchronise their growth phase before stimulating inflammation. After 24 hr cells were stimulated with 10 μg/mL LPS to induce inflammation for a duration of 24 hr. Upon stimulation, cells were exposed to various treatments of drugs alone and in combination for 24 hr. After the treatment duration media conditioned by treated cells were collected and analysed for the cytokines and VEGF-C secretions using the ELISA kits. ELISA was performed according to the manufacturer's protocol."}, "DPPH antioxidant assay": {"experiment": "DPPH antioxidant assay", "description": "The DPPH assay was performed in a 96-well plate where 20 μL of methanolic DPPH solution was added to 180 μL of methanolic solutions of treatments. Based on the outcome from anti-inflammatory studies, the higher concentrations of TA and QCN, both individually and in combination were investigated for antioxidant activity (TA 75, 100 μM and QCN 15, 20 μM). This reaction mixture was incubated for 30 min in darkness at room temperature and the absorbance was measured at 517 nm using a microplate reader."}, "ARPE-19 cells [3]": {"test_system": "ARPE-19 cells", "experiment": "Scratch (wound healing, cell migration) assay", "assay_type": "cell-based, human", "settings": "QCN 20 μM; TA 100 μM; TA 100+QCN 20 μM; 1% FBS", "description": "For the scratch or wound healing assay cells were seeded onto six-well plates with a seeding density of 25×10^4 cells/well. Upon reaching 80-90% confluency, a sterile 200 μL pipette tip was used to scrape the confluent monolayer of cells in a horizontal line. After creating the scratch, cell debris was washed with PBS and the cell culture media containing treatments was added to each well. The scratch was photographed using an Olympus EP50 microscope at 10× magnification at 0, 6, 9, 24, 27 and 30 h. “Image J” software was used to analyse the width of the scratch.\nThe major cause of irreversible vision loss is the exudative form of AMD, which is characterized by CNV where the newly formed blood vessels protrude from the choroid to the retina through Bruch's membrane. Even though the mechanism of CNV is not fully understood, some pathological studies point to the connection between CNV and sub-RPE deposits. Additionally, focal inflammation leads to focal thinning and damage of Bruch's membrane in patients of AMD. RPE cells are essential for the maintenance of photoreceptor cells as they provide nutrients. But the contact between RPE and photoreceptor cells was disrupted due to the accumulation of sub-RPE deposits and the interference of branched blood vessels. […] Upon seeding 25×10^4 cells/well and reaching around 90% confluency, the wounds were created and measured using image ‘J’ software. […]"}, "[4]": {"settings": "10 μg/mL LPS 24 hr, then 24 hr treatment"}, "[5]": {"settings": "TA 10 to 250 μM, 24 hr and 48 hr"}},
  "data": [
    {"compound": "OO", "note": "[H2O2, hydrogen peroxide]", "values": [
      {"measurement": "cell viability with stimulant", "setting": "ARPE-19 cells [1]; H2O2 200 and 300 μM, up to 48 h", "value": "decrease in cell viability"},
      {"measurement": "MFI of stimulated stained cells", "setting": "[2]; HP at 300 μM, unstimulated stained printed as 3.73±0.29, P value <0.05", "value": "2.01±0.10"}
    ]},
    {"compound": "O=c1c(O)c(-c2ccc(O)c(O)c2)oc2cc(O)cc(O)c12", "note": "[QCN, quercetin]", "values": [
      {"measurement": "cell viability", "setting": "ARPE-19 cells [1]; QCN 1 to 20 μM", "value": "more than 90%"},
      {"measurement": "effect on cells at higher concentrations", "setting": "ARPE-19 cells [1]; QCN above 25 μM, up to 250 μM", "value": "toxic effects"},
      {"measurement": "cell viability", "setting": "ARPE-19 cells [1]; QCN concentration up to 25 μM, 24 hr and 48 hr", "value": "more than 80%"},
      {"measurement": "IL-6 expression compared to LPS stimulated cells", "setting": "IL-6; [4]", "value": "decreased"},
      {"measurement": "concentration showing maximum inhibition of IL-6 expression", "setting": "IL-6; [4]", "value": 20, "unit": "µM"},
      {"measurement": "VEGF-C concentration", "setting": "VEGF-C; QCN 20 μM, control LPS stimulated 1.96±2.05", "value": "0.83 ± 0.02", "unit": "µg/mL"},
      {"measurement": "expression of VEGF-C compared to LPS stimulated cells", "setting": "VEGF-C; TA 75, 100 μM, QCN 15, 20 μM, individually and in combination", "value": "better suppression"},
      {"measurement": "inhibition of DPPH", "setting": "DPPH antioxidant assay; QCN 20 μM", "value": "66.71±0.61", "unit": "%"},
      {"measurement": "anti-oxidant effect on DPPH free radical", "setting": "DPPH antioxidant assay; TA 75, 100 μM, QCN 15, 20 μM, 30 min", "value": "strong anti-oxidant effect"},
      {"measurement": "generated ROS (MFI) compared to control stimulated stained cells", "setting": "[2]; 300 μM H2O2, TA 75, 100 μM, QCN 15, 20 μM, individually and in combination, 24 hr", "value": "significantly suppressed"},
      {"measurement": "migration of the cells", "setting": "ARPE-19 cells [3]", "value": "enhanced the migration"}
    ]},
    {"compound": "CC1(C)O[C@@H]2C[C@H]3[C@@H]4CCC5=CC(=O)C=C[C@]5(C)[C@@]4(F)[C@@H](O)C[C@]3(C)[C@]2(C(=O)CO)O1", "note": "[TA, triamcinolone acetonide]", "values": [
      {"measurement": "cell morphology", "setting": "ARPE-19 cells [1]; [5]", "value": "no changes in cell morphology"},
      {"measurement": "viability of cells", "setting": "ARPE-19 cells [1]; [5]", "value": "not affected"},
      {"measurement": "concentration showing maximum inhibition of IL-6 expression", "setting": "IL-6; [4]", "value": 100, "unit": "µM"}
    ]},
    {"compound": "lipopolysaccharide [LPS]", "values": [
      {"measurement": "cytotoxicity of stimulant", "setting": "ARPE-19 cells [1]; LPS 0.5 to 100 μg/mL, up to 48 h", "value": "non-toxic"},
      {"measurement": "IL-6 cytokine on stimulation", "setting": "IL-6; LPS stimulation from 10 to 50 μg/mL", "value": "consistently increased"}
    ]}
  ]
}
